Where two headings read alike, the source gives them in different places.
Assays:
[1] = test system: RLS subjects; conditions: for Optimal Sleep (Absolute Change) Mean / Optimal Sleep (Absolute Change) Median / Optimal Sleep (Percent Change) Mean / Optimal Sleep (Percent Change) Median / Optimal Sleep Scale Mean / Optimal Sleep Scale Median / Sleep Quantity (Absolute Change) Mean / Sleep Quantity (Absolute Change) Median / Sleep Quantity (Percent Change) Mean / Sleep Quantity (Percent Change) Median / Sleep Quantity (raw score) Mean / Sleep Quantity (raw score) Median / Sleep Snoring (Percent Change) Mean / Sleep Snoring (Percent Change) Median / Short of Breath Scale Mean / Short of Breath Scale Median / Sleep Adequacy (Absolute Change) Mean / Sleep Adequacy (Absolute Change) Median / Sleep Adequacy (Percent Change) Mean / Sleep Adequacy (Percent Change) Median / Sleep Adequacy Mean / Sleep Adequacy Median / Sleep Disturbance (Absolute Change) Mean / Sleep Disturbance (Absolute Change) Median / Sleep Disturbance (Percent Change) Mean / Sleep Disturbance (Percent Change) Median / Sleep Disturbance Scale Mean / Sleep Disturbance Scale Median / Sleep Problems Index I (Absolute Change) Mean / Sleep Problems Index I (Absolute Change) Median / Sleep Problems Index I (Percent Change) Mean / Sleep Problems Index I (Percent Change) Median / Sleep Problems Index I Mean / Sleep Problems Index I Median / Sleep Problems Index II (Absolute Change) Mean / Sleep Problems Index II (Absolute Change) Median / Sleep Problems Index II (Percent Change) Mean / Sleep Problems Index II (Percent Change) Median / Sleep Problems Index II Mean / Sleep Problems Index II Median / Sleep Short of Breath (Absolute Change) Mean / Sleep Short of Breath (Absolute Change) Median / Sleep Snoring (Absolute Change) Mean / Sleep Snoring (Absolute Change) Median / Sleep Somnolence (Absolute Change) Mean / Sleep Somnolence (Absolute Change) Median / Sleep Somnolence (Percent Change) Mean / Sleep Somnolence (Percent Change) Median / Snoring Scale Mean / Snoring Scale Median / Somnolence Scale Mean / Somnolence Scale Median: rasagiline 1 mg/day oral
Experimental: This was the first clinical study in which rasagiline was administered to RLS subjects. The dosage regimen of 1 mg/day rasagiline was chosen based on the optimal dosage regimen for the symptomatic treatment of PD. […] Therefore, in the event that a subject could not tolerate the 1 mg daily dose of rasagiline, a daily dose of 0.5 mg rasagiline was permitted. Rasagiline was administered orally as a tablet. Both the 1 mg and 0.5 mg rasagiline tablets were beveled round tablets, flat, white to off-white, scored on one side, plain on the other side. Teva Pharmaceutical Industries Ltd. was responsible for the manufacture and primary packaging of study medications according to current Good Manufacturing Practice (cGMP) principles and guidelines applicable to investigational medicinal products.
The Sleep Scale is a 12-item scale that provides a comprehensive view across almost all dimensions of sleep including daytime somnolence, sleep disturbance, sleep adequacy and sleep quantity. The investigator scored subjects on this scale at the baseline and Week 4, and 8 visits. The change from baseline to each post-baseline study visit was calculated as a secondary efficacy endpoint. (Hays, R. D. & Steward, A. L. (1992). Sleep measures. In A. L. Stewart & J. E. Ware (eds.), Measuring functioning and well-being: The Medical Outcomes Study approach (pp. 235-259), Durham, NC: Duke University Press.
N is the number of participants in the study. A low score indicates the absence of problems and a high score indicates a very severe problem.

[2] = test system: early Parkinson's disease subjects; conditions: rasagiline-treated subjects; cited from earlier work

Structure (SMILES): C#CCN[C@@H]1CCc2ccccc21 [rasagiline, R-(+)-N-propargyl-1-aminoindan]
- Optimal Sleep (Absolute Change) Mean ([1]; VISIT WEEK 4, N=1): 0.00
- Optimal Sleep (Absolute Change) Median ([1]; VISIT WEEK 4, N=1): 0.00
- Optimal Sleep (Percent Change) Mean ([1]; VISIT WEEK 4, N=1): 0.00%
- Optimal Sleep (Percent Change) Median ([1]; VISIT WEEK 4, N=1): 0.00%
- Optimal Sleep Scale Mean ([1]; VISIT WEEK 4, N=1): 1.00
- Optimal Sleep Scale Median ([1]; VISIT WEEK 4, N=1): 1.00
- Sleep Quantity (Absolute Change) Mean ([1]; VISIT WEEK 4, N=1): 0.00
- Sleep Quantity (Absolute Change) Median ([1]; VISIT WEEK 4, N=1): 0.00
- Sleep Quantity (Percent Change) Mean ([1]; VISIT WEEK 4, N=1): 0.00%
- Sleep Quantity (Percent Change) Median ([1]; VISIT WEEK 4, N=1): 0.00%
- Sleep Quantity (raw score) Mean ([1]; VISIT WEEK 4, N=1): 7.00
- Sleep Quantity (raw score) Median ([1]; VISIT WEEK 4, N=1): 7.00
- Sleep Snoring (Percent Change) Mean ([1]; VISIT WEEK 4, N=1): 0.00%
- Sleep Snoring (Percent Change) Median ([1]; VISIT WEEK 4, N=1): 0.00%
- Short of Breath Scale Mean ([1]; VISIT WEEK 4, N=2): 0.00
- Short of Breath Scale Median ([1]; VISIT WEEK 4, N=2): 0.00
- Sleep Adequacy (Absolute Change) Mean ([1]; VISIT WEEK 4, N=2): 15.00
- Sleep Adequacy (Absolute Change) Median ([1]; VISIT WEEK 4, N=2): 15.00
- Sleep Adequacy (Percent Change) Mean ([1]; VISIT WEEK 4, N=2): 25.00%
- Sleep Adequacy (Percent Change) Median ([1]; VISIT WEEK 4, N=2): 25.00%
- Sleep Adequacy Mean ([1]; VISIT WEEK 4, N=2): 55.00
- Sleep Adequacy Median ([1]; VISIT WEEK 4, N=2): 55.00
- Sleep Disturbance (Absolute Change) Mean ([1]; VISIT WEEK 4, N=2): −7.50
- Sleep Disturbance (Absolute Change) Median ([1]; VISIT WEEK 4, N=2): −7.50
- Sleep Disturbance (Percent Change) Mean ([1]; VISIT WEEK 4, N=2): −20.00%
- Sleep Disturbance (Percent Change) Median ([1]; VISIT WEEK 4, N=2): −20.00%
- Sleep Disturbance Scale Mean ([1]; VISIT WEEK 4, N=2): 33.75
- Sleep Disturbance Scale Median ([1]; VISIT WEEK 4, N=2): 33.75
- Sleep Problems Index I (Absolute Change) Mean ([1]; VISIT WEEK 4, N=2): −6.67
- Sleep Problems Index I (Absolute Change) Median ([1]; VISIT WEEK 4, N=2): −6.67
- Sleep Problems Index I (Percent Change) Mean ([1]; VISIT WEEK 4, N=2): −40.00%
- Sleep Problems Index I (Percent Change) Median ([1]; VISIT WEEK 4, N=2): −40.00%
- Sleep Problems Index I Mean ([1]; VISIT WEEK 4, N=2): 26.67
- Sleep Problems Index I Median ([1]; VISIT WEEK 4, N=2): 26.67
- Sleep Problems Index II (Absolute Change) Mean ([1]; VISIT WEEK 4, N=2): −6.67
- Sleep Problems Index II (Absolute Change) Median ([1]; VISIT WEEK 4, N=2): −6.67
- Sleep Problems Index II (Percent Change) Mean ([1]; VISIT WEEK 4, N=2): 24.00%
- Sleep Problems Index II (Percent Change) Median ([1]; VISIT WEEK 4, N=2): −24.00%
- Sleep Problems Index II Mean ([1]; VISIT WEEK 4, N=2): 33.89
- Sleep Problems Index II Median ([1]; VISIT WEEK 4, N=2): 33.89
- Sleep Short of Breath (Absolute Change) Mean ([1]; VISIT WEEK 4, N=2): 0.00
- Sleep Short of Breath (Absolute Change) Median ([1]; VISIT WEEK 4, N=2): 0.00
- Sleep Snoring (Absolute Change) Mean ([1]; VISIT WEEK 4, N=2): 0.00
- Sleep Snoring (Absolute Change) Median ([1]; VISIT WEEK 4, N=2): 0.00
- Sleep Somnolence (Absolute Change) Mean ([1]; VISIT WEEK 4, N=2): −0.00
- Sleep Somnolence (Absolute Change) Median ([1]; VISIT WEEK 4, N=2): −0.00
- Sleep Somnolence (Percent Change) Mean ([1]; VISIT WEEK 4, N=2): −20.00%
- Sleep Somnolence (Percent Change) Median ([1]; VISIT WEEK 4, N=2): −20.00%
- Snoring Scale Mean ([1]; VISIT WEEK 4, N=2): 40.00
- Snoring Scale Median ([1]; VISIT WEEK 4, N=2): 40.00
- Somnolence Scale Mean ([1]; VISIT WEEK 4, N=2): 40.00
- Somnolence Scale Median ([1]; VISIT WEEK 4, N=2): 40.00
- Optimal Sleep (Absolute Change) Mean ([1]; VISIT WEEK 8, N=1): 0.00
- Optimal Sleep (Absolute Change) Median ([1]; VISIT WEEK 8, N=1): 0.00
- Optimal Sleep (Percent Change) Mean ([1]; VISIT WEEK 8, N=1): 0.00%
- Optimal Sleep (Percent Change) Median ([1]; VISIT WEEK 8, N=1): 0.00%
- Optimal Sleep Scale Mean ([1]; VISIT WEEK 8, N=1): 1.00
- Optimal Sleep Scale Median ([1]; VISIT WEEK 8, N=1): 1.00
- Short of Breath Scale Mean ([1]; VISIT WEEK 8, N=1): 0.00
- Short of Breath Scale Median ([1]; VISIT WEEK 8, N=1): 0.00
- Sleep Adequacy (Absolute Change) Mean ([1]; VISIT WEEK 8, N=1): 40.00
- Sleep Adequacy (Absolute Change) Median ([1]; VISIT WEEK 8, N=1): 40.00
- Sleep Adequacy (Percent Change) Mean ([1]; VISIT WEEK 8, N=1): 66.67%
- Sleep Adequacy (Percent Change) Median ([1]; VISIT WEEK 8, N=1): 66.67%
- Sleep Adequacy Mean ([1]; VISIT WEEK 8, N=1): 100.00
- Sleep Adequacy Median ([1]; VISIT WEEK 8, N=1): 100.00
- Sleep Disturbance (Absolute Change) Mean ([1]; VISIT WEEK 8, N=1): −16.25
- Sleep Disturbance (Absolute Change) Median ([1]; VISIT WEEK 8, N=1): −16.25
- Sleep Disturbance (Percent Change) Mean ([1]; VISIT WEEK 8, N=1): −43.33%
- Sleep Disturbance (Percent Change) Median ([1]; VISIT WEEK 8, N=1): −43.33%
- Sleep Disturbance Scale Mean ([1]; VISIT WEEK 8, N=1): 21.25
- Sleep Disturbance Scale Median ([1]; VISIT WEEK 8, N=1): 21.25
- Sleep Problems Index I (Absolute Change) Mean ([1]; VISIT WEEK 8, N=1): −16.67
- Sleep Problems Index I (Absolute Change) Median ([1]; VISIT WEEK 8, N=1): −16.67
- Sleep Problems Index I (Percent Change) Mean ([1]; VISIT WEEK 8, N=1): −100.00%
- Sleep Problems Index I (Percent Change) Median ([1]; VISIT WEEK 8, N=1): −100.00%
- Sleep Problems Index I Mean ([1]; VISIT WEEK 8, N=1): 0.00
- Sleep Problems Index I Median ([1]; VISIT WEEK 8, N=1): 0.00
- Sleep Problems Index II (Absolute Change) Mean ([1]; VISIT WEEK 8, N=1): −16.11
- Sleep Problems Index II (Absolute Change) Median ([1]; VISIT WEEK 8, N=1): −16.11
- Sleep Problems Index II (Percent Change) Mean ([1]; VISIT WEEK 8, N=1): −58.00%
- Sleep Problems Index II (Percent Change) Median ([1]; VISIT WEEK 8, N=1): −58.00%
- Sleep Problems Index II Mean ([1]; VISIT WEEK 8, N=1): 11.67
- Sleep Problems Index II Median ([1]; VISIT WEEK 8, N=1): 11.67
- Sleep Quantity (Absolute Change) Mean ([1]; VISIT WEEK 8, N=1): 0.00
- Sleep Quantity (Absolute Change) Median ([1]; VISIT WEEK 8, N=1): 0.00
- Sleep Quantity (Percent Change) Mean ([1]; VISIT WEEK 8, N=1): 0.00%
- Sleep Quantity (Percent Change) Median ([1]; VISIT WEEK 8, N=1): 0.00%
- Sleep Quantity (raw score) Mean ([1]; VISIT WEEK 8, N=1): 7.00
- Sleep Quantity (raw score) Median ([1]; VISIT WEEK 8, N=1): 7.00
- Sleep Short of Breath (Absolute Change) Mean ([1]; VISIT WEEK 8, N=1): 0.00
- Sleep Short of Breath (Absolute Change) Median ([1]; VISIT WEEK 8, N=1): 0.00
- Sleep Snoring (Absolute Change) Mean ([1]; VISIT WEEK 8, N=1): 20.00
- Sleep Snoring (Absolute Change) Median ([1]; VISIT WEEK 8, N=1): 20.00
- Sleep Snoring (Percent Change) Mean ([1]; VISIT WEEK 8, N=1): 25.00%
- Sleep Snoring (Percent Change) Median ([1]; VISIT WEEK 8, N=1): 25.00%
- Sleep Somnolence (Absolute Change) Mean ([1]; VISIT WEEK 8, N=1): 0.00
- Sleep Somnolence (Absolute Change) Median ([1]; VISIT WEEK 8, N=1): 0.00
- Sleep Somnolence (Percent Change) Mean ([1]; VISIT WEEK 8, N=1): 0.00%
- Sleep Somnolence (Percent Change) Median ([1]; VISIT WEEK 8, N=1): 0.00%
- Snoring Scale Mean ([1]; VISIT WEEK 8, N=1): 100.00
- Snoring Scale Median ([1]; VISIT WEEK 8, N=1): 100.00
- Somnolence Scale Mean ([1]; VISIT WEEK 8, N=1): 13.33
- Somnolence Scale Median ([1]; VISIT WEEK 8, N=1): 13.33
- improvement in the Sleep Problems Index II ([1]; by eight weeks, remaining subject): 58%
- most commonly reported adverse events [2]: pain, headache and dizziness
- side effects typical of dopaminergic medications (hallucinations, somnolence, edema, nausea, vomiting, diarrhea) [2]: infrequently reported

Source: patent US12310929B2, “Use of rasagiline for the treatment of restless legs syndrome” (TEVA PHARMACEUTICAL INDUSTRIES, LTD., priority 2006, dated 2025)
